Source: patent US20250144110A1, “COMPOSITIONS OF AUTOPHAGY MODULATING AGENTS AND USES THEREOF” (Washington University, priority 2022, published 2025)

Legend:
HD-MSNs [1] = experiment: Caspase 3/7 activation and Annexin V signal in HD-MSNs; type: cell-based, human; settings: HD-MSNs at PID30; 0.125, 0.25 or 0.5 uM
Description: (§1) FIG. 1A-FIG. 1E is an exemplary embodiment showing autophagy activator rescues HD-MSNs from degeneration in accordance with the present disclosure. FIG. 1A depicts the chemical structure of Ex 3. FIG. 1B includes a representative immunoblot (left) for steady state levels of α1-antitrypsin Z variant (ATZ) and β-actin in the HTO/Z cell line model of α1-antitrypsin deficiency after 24 hr treatment with DMSO alone or Ex 3 in DMSO at 0.5 and 2.5 μM and a bar graph showing the normalized intensity (right) calculated from immunoblot images for 0.5 μM versus DMSO control (Individual data plotted, n=4 biological replicates; *p=0.003 by t-test; mean+/−s.e.m). FIG. 1C includes an immunoblot for p62 and GAPDH in HD-MSNs treated with DMSO or 0.5 μM Ex 3 at PID26 (left) and a bar graph showing intensity values were normalized by GAPDH intensities and the relative fold change over DMSO condition was calculated from immunoblot images of three independent HD-MSN lines (right). Each dot represents reprogrammed MSNs from three independent HD-MSN lines. […] FIG. 1E includes example photographs (top) of HD-MSNs treated with DMSO or 0.5 μM Ex 3 (PID 30) expressing the tandem monomeric RFP-GFP-LC3 reporter and a bar graph (bottom) showing quantification of autophagosome (i.e., RFP+, GFP+ puncta) and autolysosome (i.e., RFP+, GFP− puncta) compartments from three independent HD-MSNs. […]

[2] = Liver microsomal stability, mouse; type: in vitro ADME; settings: mouse liver microsomes; read-out: LM stability Mouse t ½
Description: (§2) As described herein, continued lead optimization afforded potent quinolones.

[3] = test system: mHTT inclusion bodies in HD-MSNs; experiment: HTT inclusion bodies in HD-MSNs; type: cell-based, human; settings: 0.5 μM, PID30, vs DMSO
Description: as §1

HD-MSNs [4] = experiment: HD-MSN death (SYTOX assay); survival of striatal neurons; type: cell-based, human; settings: treated from PID14 every four days for 16 days
Description: as §1

HD-MSNs [5] = experiment: Autophagic vacuoles by CYTO-ID green in HD-MSNs; type: cell-based, human; settings: 0.5 μM, PID26, vs DMSO
Description: as §1

p62/SQSTM1 in HD-MSNs = experiment: p62 immunoblot in HD-MSNs; type: cell-based, human; settings: 0.5 μM, PID26, vs DMSO
Description: as §1

[6] = test system: HD-MSNs expressing the RFP-GFP-LC3 reporter; experiment: Tandem RFP-GFP-LC3 reporter in HD-MSNs; type: cell-based, human; settings: 0.5 μM, PID30, vs DMSO
Description: as §1

[7] = Liver microsomal stability, human; type: in vitro ADME; settings: human liver microsomes; read-out: LM stability Human t ½
Description: as §2

| Structure (SMILES) | Annexin V signal (HD-MSNs [1]) | activated Caspase 3/7 signal (HD-MSNs [1]) | half-life [2] [h] | number of mHTT inclusion bodies [3] | HD-MSN death (SYTOX-positive cells) (HD-MSNs [4]) | number of autophagic vacuoles (CYTO-ID signals) (HD-MSNs [5]) | p62/SQSTM1 protein levels (p62/SQSTM1 in HD-MSNs) | average number of autophagosomes and autolysosomes [6] | half-life [7] [h] |
| --- | --- | --- | --- | --- | --- | --- | --- | --- | --- |
| O=c1ccc2c(Cl)cc(Cl)cc2[nH]1 [Ex 3, 5,7-dichloro-1H-quinolin-2-one] | significant reduction | significant reduction | 0.07 | reduced the number of mHTT inclusion bodies | significant reduction in HD-MSN death in a dose-dependent manner | increased the number of autophagic vacuoles | decreased p62/SQSTM1 protein levels | increased the average number of autophagosomes and autolysosomes |  |
| O=c1ccc2c(C(F)(F)F)c(-c3ccc(Cl)cn3)ccc2[nH]1 [Ex 97, 6-(5-chloropyridin-2-yl)-5-(trifluoromethyl) quinolin-2 (1H)-one] |  |  | > 2.42 |  |  |  |  |  | > 2.42 |
